Earlier results on one molecule are cited in patent US5179102A, “Naphthyridinyl/naphthyridinylalkyl-n-terminal anino hydroxy β-amino acid derivatives” (G. D. Searle & Co., priority 1991, dated 1993).

Square brackets hold non-standard residues; d marks the D form. Peptide text beside a SMILES is read from it. * marks the point of attachment. Sta = CC(C)C[C@H](N)[C@@H](O)CC(=O)O; Isovaleryl = CC(C)CC(=O)*

This series relates to hog renin. To be noted: after the injection of hog renin into nephrectomized rats.

As for `CC(C)CC(=O)N[C@H](C(=O)N[C@H](C(=O)N[C@@H](CC(C)C)[C@@H](O)CC(=O)N[C@@H](C)C(=O)N[C@@H](CC(C)C)[C@@H](O)CC(=O)O)C(C)C)C(C)C` [pepstatin] (Isovaleryl-VV[Sta]A[Sta]-OH), the “reduce blood pressure in vivo” value is recorded as “found to reduce blood pressure in vivo”.
